# Test results published in ChEMBL document CHEMBL1144673, “Discovery of novel alpha-glucosidase inhibitors based on the virtual screening with the homology-modeled protein structure” (Bioorg Med Chem, 2008).
# Target: Alpha-glucosidase MAL12 (Saccharomyces cerevisiae S288c) (UniProt P53341)
# Test: Inhibition of bakers yeast alpha-glucosidase at 50 uM
# Chain of Alpha-glucosidase MAL12 (Saccharomyces cerevisiae S288c) (P53341 whole entry): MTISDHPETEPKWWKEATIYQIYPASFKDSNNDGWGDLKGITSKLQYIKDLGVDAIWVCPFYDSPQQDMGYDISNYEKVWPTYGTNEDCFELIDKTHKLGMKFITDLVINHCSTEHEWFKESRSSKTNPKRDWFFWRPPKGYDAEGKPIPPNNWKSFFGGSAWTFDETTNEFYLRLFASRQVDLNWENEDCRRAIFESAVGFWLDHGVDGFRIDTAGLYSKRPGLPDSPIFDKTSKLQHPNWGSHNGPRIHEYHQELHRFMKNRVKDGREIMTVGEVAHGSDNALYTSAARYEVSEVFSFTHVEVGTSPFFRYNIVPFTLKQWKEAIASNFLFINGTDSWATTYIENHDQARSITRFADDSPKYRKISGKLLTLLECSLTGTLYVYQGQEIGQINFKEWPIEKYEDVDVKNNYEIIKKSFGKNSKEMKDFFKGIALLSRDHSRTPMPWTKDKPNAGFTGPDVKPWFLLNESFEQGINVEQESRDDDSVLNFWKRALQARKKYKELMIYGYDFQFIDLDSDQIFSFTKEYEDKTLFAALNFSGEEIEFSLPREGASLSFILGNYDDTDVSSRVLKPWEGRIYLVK
row,Structure (SMILES),inhibition [%]
1,O=C1NC(=O)N(c2ccccc2F)C(=O)/C1=C\c1ccccc1OCc1ccc(C(=O)O)cc1,54
2,Oc1ccc(-c2nnc(Nc3cccc(O)c3)c3ccccc23)cc1,61.4
3,O=C(Cn1c(=O)n(CC(=O)NCc2ccccc2)c2cc(Cl)ccc21)NCc1ccccc1,62.4
4,O=C(Nc1nccs1)c1c(O)c2ccccc2n(Cc2ccccc2)c1=O,52.3
5,Cn1cc(/C=C/C(=O)NC(=O)c2ccccc2O)c2ccccc21,71.4
6,O=C(CSc1nnc(COc2cccc3cccnc23)n1-c1ccccc1)c1ccc(Cl)cc1,66.5
7,O=C(CSc1nc2ccccc2c(=O)n1-c1ccccc1)NCc1ccccc1,50.9
8,Cc1ccc(-n2c(SCC(=O)Nc3ccc(F)c(F)c3)nnc2-c2ccccc2)cc1,63.1
9,N#CC1=C(N)n2c(s/c(=C\c3ccccc3F)c2=O)=C(C(N)=O)C1c1ccccc1F (stereo not drawn),62.2
10,Cc1ccc(/N=c2\cc(-c3ccc4c(c3)OCO4)oc3ccc(O)cc23)cc1C,58
11,COc1ccc(N2C(=O)NC(=O)/C(=C\c3cn(CC(=O)Nc4ccccc4)c4ccccc34)C2=O)cc1,50.6
12,N#CC1=C(N)n2c(s/c(=C\c3ccc(O)cc3)c2=O)=C(C(N)=O)C1c1ccc(O)cc1 (stereo not drawn),59.2
13,O=C(Nc1ccccc1O)c1ccc(Oc2cccc(C(=O)Nc3ccccc3O)c2)cc1,70.1
